In patent publication US8859534B2, “2-carboxamide-7-piperazinyl-benzofuran derivatives” (AstraZeneca AB, priority 2009, dated 2014):

How the values were obtained:
5-HT1B receptor = 5-HT1B receptor (Homo sapiens (Human), UniProt P28222); test: 5-HT1B receptor competition binding assay (SPA, [3H]-GR125743); conditions: membranes of CHO cells expressing 5-HT1B receptors; radioligand [3H]-GR125743 0.15-0.2 nM
Source text: (§1) Assays that were used to measure affinity of the compounds of the present invention for 5-HT1A and 5-HT1B receptors are described in J. Recept Signal Transduct. Res. 22:483-495 (2002) and Naunyn-Schmiedeberg's Arch Pharmacol. 356:328-334 (1997) and incorporated by reference herein. These assays were be used with some modifications:
(§2) For the binding assay stably transfected chinese hamster ovary (CHO) cell lines expressing 5-HT1A receptors or 5-HT1B receptors were harvested by centrifugation at 300×g for 10 min and resuspended in 10 mM Tris-HCl, 5 mM EDTA at pH 7.4. The cells were pooled, recentrifuged and resuspended before homogenisation using a Dounce homogeniser (“type B”). Cell membranes were centrifuged at 48 000×g for 10 min and then resuspended in harvesting buffer using an Ultra-Turrax T8 (IKA Labortechnik, Germany), aliquots were stored frozen in −70° C.
Frozen membrane preparations were thawed, homogenized with an Ultra-Turrax and mixed with SPA beads (YSI coated WGA, GE Healthcare/Amersham, Buckinghamshire, UK) in assay buffer containing 50 mM Tris-Base, 4 mM MgCl2, 4 mM CaCl2 (only 5-HT1B), 1 mM EDTA, and adjusted to pH 7.4 with HCl. The beads/membrane solution, final concentration 100 pM receptors for 5-HT1A, 300 pM receptors for 5-HT1B and 0.5 mg SPA beads/well, was pre-incubated in room temperature with stirring for 30-60 min. […] Five (log interval, 10 μM to 1 nM, final concentration) or ten serial dilutions (½-log interval, 10 μM to 0.32 nM, final concentration) of compounds were prepared in DMSO from 10 mM stock solutions. The binding assays were performed in 384-well plates in a final volume of 90 μL/well with the following additions: 9 μL binding buffer; 1 μL compound/DMSO/nonspecific; 20 μL radioligand; and 60 μL beads/membrane mixture. Non-specific binding was defined by using 10 μM WAY100635 for 5-HT1A and 10 μM Methiothepin for 5-HT1B. The assay plates were incubated for 4 hours where after the plates are counted in a Wallac 1450 Microbeta Trilux counter (PerkinElmer LifeScience, US) or similar. Data from the experiments were analyzed using a four parameter logistic equation as follows: Y=Bottom+(Top-Bottom)/1+10^(LogEC50-X)nH.
• Jerning E., Rosqvist S., Mohell N. (2002) NAD-299 antagonises 5-HT-stimulated and Spiperone-inhibited [^35S]GTPγS binding in cloned 5-HT1A receptors. J Recept Signal Transduct Res 22:483-495. • Doménech T., Beleta J., Palacios J. M. (1997) Characterization of human serotonin 1D and 1B receptors using [^3H]-GR-125743, a novel radiolabelled serotonin 5HT1D/1B receptor antagonist. Naunyn-Schmiedeberg's Arch Pharmacol 356:328-334.

5-HT1A receptor = 5-HT1A receptor (Homo sapiens (Human), UniProt P08908); test: 5-HT1A receptor competition binding assay (SPA, [3H]-8-OH-DPAT); conditions: membranes of CHO cells expressing 5-HT1A receptors; radioligand [3H]-8-OH-DPAT 0.15-0.2 nM
Chain of 5-HT1A receptor (P08908 whole entry): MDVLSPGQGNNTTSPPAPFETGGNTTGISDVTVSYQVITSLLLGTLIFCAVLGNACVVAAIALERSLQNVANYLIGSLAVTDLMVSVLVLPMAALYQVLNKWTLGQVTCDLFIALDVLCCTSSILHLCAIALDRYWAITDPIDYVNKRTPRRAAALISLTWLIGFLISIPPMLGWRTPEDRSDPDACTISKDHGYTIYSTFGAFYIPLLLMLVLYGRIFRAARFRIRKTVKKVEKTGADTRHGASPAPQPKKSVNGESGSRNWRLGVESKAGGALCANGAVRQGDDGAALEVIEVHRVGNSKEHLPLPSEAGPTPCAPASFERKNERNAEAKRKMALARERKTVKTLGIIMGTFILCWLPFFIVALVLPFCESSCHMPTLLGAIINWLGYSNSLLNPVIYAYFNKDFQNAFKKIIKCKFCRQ
Source text: as §1, §2
Frozen membrane preparations were thawed, homogenized with an Ultra-Turrax and mixed with SPA beads (YSI coated WGA, GE Healthcare/Amersham, Buckinghamshire, UK) in assay buffer containing 50 mM Tris-Base, 4 mM MgCl2, 4 mM CaCl2 (only 5-HT1B), 1 mM EDTA, and adjusted to pH 7.4 with HCl. […] The binding assays were performed in 384-well plates in a final volume of 90 μL/well with the following additions: 9 μL binding buffer; 1 μL compound/DMSO/nonspecific; 20 μL radioligand; and 60 μL beads/membrane mixture. Non-specific binding was defined by using 10 μM WAY100635 for 5-HT1A and 10 μM Methiothepin for 5-HT1B. The assay plates were incubated for 4 hours where after the plates are counted in a Wallac 1450 Microbeta Trilux counter (PerkinElmer LifeScience, US) or similar. Data from the experiments were analyzed using a four parameter logistic equation as follows: Y=Bottom+(Top-Bottom)/1+10^(LogEC50-X)nH.

Chain of 5-HT1B receptor (P28222 whole entry): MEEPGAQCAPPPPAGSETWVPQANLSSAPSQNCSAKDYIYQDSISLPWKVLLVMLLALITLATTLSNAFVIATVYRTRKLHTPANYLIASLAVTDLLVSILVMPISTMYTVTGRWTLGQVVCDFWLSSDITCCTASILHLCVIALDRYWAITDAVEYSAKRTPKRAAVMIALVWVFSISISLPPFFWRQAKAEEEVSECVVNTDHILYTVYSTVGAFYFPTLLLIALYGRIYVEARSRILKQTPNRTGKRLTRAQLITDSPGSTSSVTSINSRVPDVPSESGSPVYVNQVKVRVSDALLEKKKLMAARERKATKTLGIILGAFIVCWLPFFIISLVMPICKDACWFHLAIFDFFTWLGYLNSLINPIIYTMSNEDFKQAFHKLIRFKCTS

| Ki (5-HT1B receptor) [nM] | Ki (5-HT1A receptor) [nM] | SMILES |
| --- | --- | --- |
| 1 | 0.85 | COc1ccc(CNC(=O)c2cc3cccc(N4CCN(CCc5ccccn5)CC4)c3o2)cc1 [Example 28, N-(4-Methoxybenzyl)-7-(4-(2-(pyridin-2-yl)ethyl)piperazin-1-yl)benzofuran-2-carboxamide] |
| 19 | 2 | Cc1ccnc(CCNC(=O)c2cc3cccc(N4CCN(CCc5ccccn5)CC4)c3o2)n1 [Example 29, N-(2-(4-Methylpyrimidin-2-yl)ethyl)-7-(4-(2-(pyridin-2-yl)ethyl)piperazin-1-yl)benzofuran-2-carboxamide] |
| 1.8 | 0.2 | CS(=O)(=O)c1ccc(CNC(=O)c2cc3cccc(N4CCN(CCc5ccccn5)CC4)c3o2)cc1 [Example 4, N-(4-(Methylsulfonyl)benzyl)-7-(4-(2-(pyridin-2-yl)ethyl)piperazin-1-yl)benzofuran-2-carboxamide] |
| 0.56 | 0.42 | COc1cccnc1N1CCC(NC(=O)c2cc3cccc(N4CCN(CCc5ccccn5)CC4)c3o2)CC1 [Example 24, N-(1-(3-Methoxypyridin-2-yl)piperidin-4-yl)-7-(4-(2-(pyridin-2-yl)ethyl)piperazin-1-yl)benzofuran-2-carboxamide] |
| 280 | 12 | CC(NC(=O)c1cc2cccc(N3CCN(CCc4ccccn4)CC3)c2o1)c1ccnn1C (centres unmarked) [Example 32, N-(1-(1-Methyl-1H-pyrazol-5-yl)ethyl)-7-(4-(2-(pyridin-2-yl)ethyl)piperazin-1-yl)benzofuran-2-carboxamide] |
| 16 | 1.4 | O=C(c1cc2cccc(N3CCN(CCc4ccccn4)CC3)c2o1)N1CCC1 [Example 15, Azetidin-1-yl(7-(4-(2-(pyridin-2-yl)ethyl)piperazin-1-yl)benzofuran-2-yl)methanone] |
| 42 | 3.3 | O=C(NC1CC(F)(F)C1)c1cc2cccc(N3CCN(CCc4ccccn4)CC3)c2o1 [Example 14, N-(3,3-Difluorocyclobutyl)-7-(4-(2-(pyridin-2-yl)ethyl)piperazin-1-yl)benzofuran-2-carboxamide] |
| 63 | 2.6 | CN(Cc1cccnc1)C(=O)c1cc2cccc(N3CCN(CCc4ccccn4)CC3)c2o1 [Example 21, N-Methyl-7-(4-(2-(pyridin-2-yl)ethyl)piperazin-1-yl)-N-(pyridin-3-ylmethyl)benzofuran-2-carboxamide] |
| 1.4 | 4.2 | O=C(c1cc2cccc(N3CCN(CCc4ccccn4)CC3)c2o1)N1CCN(c2nccs2)CC1 [Example 23, (7-(4-(2-(Pyridin-2-yl)ethyl)piperazin-1-yl)benzofuran-2-yl)(4-(thiazol-2-yl)piperazin-1-yl)methanone] |
| 20 | 3.7 | CC(=O)Nc1ccc(CCN2CCN(c3cccc4cc(C(=O)N(C)C)oc34)CC2)nc1 [Example 44, 7-(4-(2-(5-Acetamidopyridin-2-yl)ethyl)piperazin-1-yl)-N,N-dimethylbenzofuran-2-carboxamide] |
| 19 | 0.22 | CN(C)C(=O)c1cc2cccc(N3CCN(CCc4ccc(F)cn4)CC3)c2o1 [Example 47, 7-(4-(2-(5-Fluoropyridin-2-yl)ethyl)piperazin-1-yl)-N,N-dimethylbenzofuran-2-carboxamide] |
| 8.2 | 0.43 | CN(C)C(=O)c1cc2cc(F)cc(N3CCN(CCc4ccccn4)CC3)c2o1 [Example 50, 5-Fluoro-N,N-dimethyl-7-(4-(2-(pyridin-2-yl)ethyl)piperazin-1-yl)benzofuran-2-carboxamide] |
| 9.1 | 0.91 | N#Cc1cccc(CNC(=O)c2cc3cccc(N4CCN(CCc5ccccn5)CC4)c3o2)c1 [Example 22, N-(3-Cyanobenzyl)-7-(4-(2-(pyridin-2-yl)ethyl)piperazin-1-yl)benzofuran-2-carboxamide] |
| 44 | 2.1 | Cc1ccc(C(C)NC(=O)c2cc3cccc(N4CCN(CCc5ccccn5)CC4)c3o2)cn1 (centres unmarked) [Example 33, N-(1-(6-Methylpyridin-3-yl)ethyl)-7-(4-(2-(pyridin-2-yl)ethyl)piperazin-1-yl)benzofuran-2-carboxamide] |
| 2.3 | 0.91 | COc1cccc(CNC(=O)c2cc3cccc(N4CCN(CCc5ccccn5)CC4)c3o2)c1 [Example 26, N-(3-Methoxybenzyl)-7-(4-(2-(pyridin-2-yl)ethyl)piperazin-1-yl)benzofuran-2-carboxamide] |
| 3.5 | 0.23 | O=C(NCc1cccc(O)c1)c1cc2cccc(N3CCN(CCc4ccccn4)CC3)c2o1 [Example 37, N-(3-Hydroxybenzyl)-7-(4-(2-(pyridin-2-yl)ethyl)piperazin-1-yl)benzofuran-2-carboxamide] |
| 10 | 0.99 | CN(Cc1cccc(S(C)(=O)=O)c1)C(=O)c1cc2cccc(N3CCN(CCc4ccccn4)CC3)c2o1 [Example 19, N-Methyl-N-(3-(methylsulfonyl)benzyl)-7-(4-(2-(pyridin-2-yl)ethyl)piperazin-1-yl)benzofuran-2-carboxamide] |
| 1.6 | 0.064 | CC(=O)N1CCc2cc(CCN3CCN(c4cccc5cc(C(=O)N(C)C)oc45)CC3)ccc21 [Example 38, 7-(4-(2-(1-Acetylindolin-5-yl)ethyl)piperazin-1-yl)-N,N-dimethylbenzofuran-2-carboxamide] |
| 3.3 | 2 | CS(=O)(=O)Cc1ccc(CNC(=O)c2cc3cccc(N4CCN(CCc5ccccn5)CC4)c3o2)cc1 [Example 17, N-(4-(Methylsulfonylmethyl)benzyl)-7-(4-(2-(pyridin-2-yl)ethyl)piperazin-1-yl)benzofuran-2-carboxamide] |
| 0.7 | 1.3 | COc1cccc(CCNC(=O)c2cc3cccc(N4CCN(CCc5ccccn5)CC4)c3o2)c1 [Example 18, N-(3-Methoxyphenethyl)-7-(4-(2-(pyridin-2-yl)ethyl)piperazin-1-yl)benzofuran-2-carboxamide] |
| 1.3 | 0.14 | Cc1ccc(CCN2CCN(c3cccc4cc(C(=O)N(C)C)oc34)CC2)nc1 [Example 40, N,N-dimethyl-7-(4-(2-(5-methylpyridin-2-yl)ethyl)piperazin-1-yl)benzofuran-2-carboxamide] |
| 31 | 2.9 | CN(Cc1ccccn1)C(=O)c1cc2cccc(N3CCN(CCc4ccccn4)CC3)c2o1 [Example 25, N-Methyl-7-(4-(2-(pyridin-2-yl)ethyl)piperazin-1-yl)-N-(pyridin-2-ylmethyl)benzofuran-2-carboxamide] |
| 37 | 2.2 | Cn1cnc(CNC(=O)c2cc3cccc(N4CCN(CCc5ccccn5)CC4)c3o2)c1 [Example 5, N-((1-Methyl-1H-imidazol-4-yl)methyl)-7-(4-(2-(pyridin-2-yl)ethyl)piperazin-1-yl)benzofuran-2-carboxamide] |
| 0.52 | 0.14 | O=C(NC1CCN(c2ccccc2)CC1)c1cc2cccc(N3CCN(CCc4ccccn4)CC3)c2o1 [Example 3, N-(1-Phenylpiperidin-4-yl)-7-(4-(2-(pyridin-2-yl)ethyl)piperazin-1-yl)benzofuran-2-carboxamide] |
| 0.88 | 0.11 | CNC(=O)c1cc2cccc(N3CCN(CCc4ccccn4)CC3)c2o1 [Example 12, N-Methyl-7-(4-(2-(pyridin-2-yl)ethyl)piperazin-1-yl)benzofuran-2-carboxamide] |
